Here are results for 15 compounds from ChEMBL document CHEMBL5661943, “ASAP - In vitro antiviral effect” (2024).

In general, EC50 refers to the concentration giving half of the maximal effect. Usually EC90 stands for the point of the concentration-response curve where the effect stands at 90%.

For test [1], the system named is Zika virus. Briefly: Functional CPE-based assay to measure dose dependent changes in antiviral-drug inhibitory efficacy against Zika virus MR766 in Vero E6 miRFP670 cells (cotreated with P-gp inhibitor, CP100356). Cells are treated with antiviral candidates that are serially diluted. EC50 is reported via analysis of MTS assay as a readout of CPE. The assay has been performed by KU Leuven. The test is classed as organism-based, Chlorocebus sabaeus, Vero C1008. As to conditions: for EC90: P-gp concentration 500 nM, P-gp inhibitor CP100356. (Formazan colour is commonly taken as a measure of viable cells.)

A further test deals with dengue virus type 2. Briefly: Functional assay to measure dose dependent changes in antiviral-drug inhibitory efficacy against Dengue virus type 2 New Guinea C in Vero E6 miRFP670 cells (cotreated with P-gp inhibitor, CP100356). Cells are treated with antiviral candidates that are serially diluted, following infection, cells are fixed. EC50 is reported via analysis of fluorescence intensity using high-content imager. The …. The test is classed as organism-based, Chlorocebus sabaeus, Vero C1008. Particulars: for EC90: P-gp concentration 500 nM, P-gp inhibitor CP100356.

For test [2], the system named is Zika virus. Briefly: EC50 is reported via analysis of immunofluorescence staining. The assay has been performed by Icahn School of Medicine at Mount Sinai. Type of test: functional, organism-based, Chlorocebus sabaeus, VeroE6/TMPRSS2. Particulars: Zika virus.

Bounds are passed on as bounds.

Take `O=C(Nc1ccc2c(c1)CNC2)c1cc(Br)cc2[nH]c([C@H]3CCOC3)nc12`: the EC50 was 0.918 µM in the test with Zika virus [1] (Zika virus, Vero C1008); above 3.12 µM in the test with dengue virus type 2 (Dengue virus, Vero C1008); above 5.56 µM in the test with Zika virus [2] (VeroE6/TMPRSS2). The EC90 in the test on Zika virus [1] (Zika virus, Vero C1008, Baseline response 0 %, Hill slope 2.359, Maximum measured 80.04 %, Maximum response 100 %, Minimum measured 15.463 %, R squared 0.714) is above 1.56 µM; in the test with dengue virus type 2 (Dengue virus, Vero C1008, Baseline response 0 %, Hill slope -2.03, Maximum measured 96.655 %, Maximum response 100 %, Minimum measured 50.768 %, R squared 0.853), above 3.12 µM; in the test with Zika virus [2] (VeroE6/TMPRSS2, Maximum measured 90.854 %, Minimum measured 45.403 %, P-gp concentration 2 uM, P-gp inhibitor Elacidar), above 5.56 µM.
For the compound `O=C(Nc1ccc2c(c1)CNC2)c1cc(Cl)cc2c1NCCC2`, the EC50 was above 50 µM in the test with Zika virus [1] (Zika virus, Vero C1008) and above 50 µM in the test on dengue virus type 2 (Dengue virus, Vero C1008). The EC90 in the test on Zika virus [1] (Zika virus, Vero C1008, Maximum measured 8.781 %, Minimum measured -16.872 %) is above 50 µM; with dengue virus type 2 (Dengue virus, Vero C1008, Baseline response 0 %, Hill slope 0.298, Maximum measured 134.107 %, Maximum response 100 %, Minimum measured 52.01 %, R squared 0.047) it was above 50 µM.
As for `O=C(Nc1cc(Br)c2c(c1)CNC2)c1cc(F)cc2[nH]ncc12`, the EC50 with Zika virus [1] (Zika virus, Vero C1008) was 1.56 µM; in the test on dengue virus type 2 (Dengue virus, Vero C1008), above 50 µM. In addition, the 90% effect concentration (EC90) is 1.65 µM in the test with Zika virus [1] (Zika virus, Vero C1008, Baseline response 0 %, Hill slope 40.279, Maximum measured 114.894 %, Maximum response 100 %, Minimum measured 2.051 %, R squared 0.957) and above 50 µM in the test with dengue virus type 2 (Dengue virus, Vero C1008, Baseline response 0 %, Hill slope -0.743, Maximum measured 120.32 %, Maximum response 100 %, Minimum measured 52.999 %, R squared 0.166).
In the case of `CNC(=O)[C@H](Nc1ccc2c(c1)CNC2)c1cc(Cl)cc2[nH]c(-c3ccccc3)nc12`, the EC90 in the test with Zika virus [1] (Baseline response 0 %, EC90 CI (lower) 1.657 uM, EC90 CI (upper) 9.069 uM, Hill slope 2.736, Maximum measured 134.068 %, Maximum response 100 %, Minimum measured 11.054 %, R squared 0.856) is 3.88 µM; with Zika virus [1] (Zika virus, Vero C1008, Baseline response 0 %, EC90 CI (lower) 2.457 uM, EC90 CI (upper) 4.2 uM, Hill slope 2.999, Maximum measured 107.773 %, Maximum response 100 %, Minimum measured 2.918 %, R squared 0.982) it was 3.21 µM; in the test on dengue virus type 2 (Dengue virus, Vero C1008, Maximum measured 190.221 %, Minimum measured 63.084 %), above 25 µM; in the test on dengue virus type 2 (Dengue virus, Vero C1008, Baseline response 0 %, Hill slope -0.424, Maximum measured 89.369 %, Maximum response 100 %, Minimum measured 51.028 %, R squared 0.334), above 25 µM. In addition, the EC50 in the test on Zika virus [1] (Zika virus, Vero C1008) is 1.54 µM; in the test on Zika virus [1] (vero c1008) it was 1.74 µM; with dengue virus type 2 (Dengue virus, Vero C1008), above 25 µM.
Regarding `Cn1c(=O)[nH]c2c(C(=O)Nc3ccc4c(c3)CNC4)cc(Br)cc21`, the EC50 in the test with Zika virus [1] (Zika virus, Vero C1008) was 0.724 µM; with dengue virus type 2 (Dengue virus, Vero C1008) it was above 50 µM. The EC90 in the test on Zika virus [1] (Zika virus, Vero C1008, Baseline response 0 %, EC90 CI (lower) 0.762 uM, EC90 CI (upper) 6.925 uM, Hill slope 1.902, Maximum measured 109.696 %, Maximum response 100 %, Minimum measured 27.933 %, R squared 0.521) is 2.3 µM; with dengue virus type 2 (Dengue virus, Vero C1008, Baseline response 0 %, Hill slope -2.293, Maximum measured 105.522 %, Maximum response 100 %, Minimum measured 55.095 %, R squared 0.397), above 50 µM.
As to `O=C(Nc1cc2c(cc1Br)CNC2)c1cc(F)cc2[nH]ncc12`, the half-maximal effective concentration (EC50) in the test with Zika virus [1] (Zika virus, Vero C1008) was 0.721 µM; in the test with dengue virus type 2 (Dengue virus, Vero C1008) it was above 25 µM. In addition, the concentration for an effect of 90% (EC90) in the test on Zika virus [1] (Zika virus, Vero C1008, Baseline response 0 %, EC90 CI (lower) 0.74 uM, EC90 CI (upper) 4.973 uM, Hill slope 2.246, Maximum measured 124.778 %, Maximum response 100 %, Minimum measured 29.701 %, R squared 0.756) is 1.92 µM; in the test on dengue virus type 2 (Dengue virus, Vero C1008, Baseline response 0 %, Hill slope -2.027, Maximum measured 102.892 %, Maximum response 100 %, Minimum measured 55.622 %, R squared 0.83) it was above 25 µM.
For `Cc1cnccc1-c1cc(NC(=O)c2cc(F)cc3[nH]ncc23)cc2c1CNC2`, the EC50 was above 50 µM in the test with Zika virus [1] (Zika virus, Vero C1008) and above 25 µM in the test on dengue virus type 2 (Dengue virus, Vero C1008). Besides, the EC90 with Zika virus [1] (Zika virus, Vero C1008, Baseline response 0 %, Hill slope 2.277, Maximum measured 10.357 %, Maximum response 100 %, Minimum measured -2.491 %, R squared 0.469) was above 50 µM; in the test with dengue virus type 2 (Dengue virus, Vero C1008, Maximum measured 259.167 %, Minimum measured 80.59 %), above 25 µM.
`O=C(NCC(F)F)[C@H](Nc1ccc2c(c1)CNC2)c1cc(F)cc2[nH]ncc12`: the concentration giving a half-maximal response (EC50) is 17.9 µM with Zika virus [1] (Zika virus, Vero C1008) and above 50 µM in the test on dengue virus type 2 (Dengue virus, Vero C1008). In addition, the concentration for an effect of 90% (EC90) in the test on Zika virus [1] (Zika virus, Vero C1008, Baseline response 0 %, Hill slope 1.433, Maximum measured 86.437 %, Maximum response 100 %, Minimum measured 5.781 %, R squared 0.963) is above 50 µM; with dengue virus type 2 (Dengue virus, Vero C1008, Maximum measured 213.694 %, Minimum measured 101.734 %), above 50 µM.
For the compound `O=C(Nc1ccc2c(c1)CNC2)c1cc(F)c2[nH]ccc2c1`, the EC50 was 24.5 µM in the test with Zika virus [1] (Zika virus, Vero C1008) and below 0.391 µM with dengue virus type 2 (Dengue virus, Vero C1008). The EC90 is above 50 µM in the test with Zika virus [1] (Zika virus, Vero C1008, Baseline response 0 %, Hill slope 0.879, Maximum measured 122.421 %, Maximum response 100 %, Minimum measured -4.109 %, R squared 0.266) and below 0.391 µM in the test on dengue virus type 2 (Dengue virus, Vero C1008, Baseline response 0 %, Hill slope 3.427, Maximum measured 127.165 %, Maximum response 100 %, Minimum measured 69.586 %, R squared 0.325).
As for `O=C(Nc1ccc2c(c1)CN[C@H]2CC1CC1)c1cc(F)cc2[nH]ncc12`, the EC50 in the test with Zika virus [1] (Zika virus, Vero C1008) is 1.64 µM; with dengue virus type 2 (Dengue virus, Vero C1008) it was 1.03 µM. Besides, in the test with Zika virus [1] (Zika virus, Vero C1008, Baseline response 0 %, Hill slope 24.148, Maximum measured 124.993 %, Maximum response 100 %, Minimum measured 2.983 %, R squared 0.936), the concentration for an effect of 90% (EC90) was found to be 1.79 µM.
For `NCc1ccc(-c2csc3cc(C(=O)Nc4ccc5c(c4)CNC5)ccc23)cc1`, the EC50 in the test on Zika virus [1] (Zika virus, Vero C1008) is above 50 µM; in the test with dengue virus type 2 (Dengue virus, Vero C1008) it was above 6.25 µM. Further, the EC90 was above 50 µM with Zika virus [1] (Zika virus, Vero C1008, Maximum measured 6.518 %, Minimum measured 2.745 %) and above 6.25 µM in the test with dengue virus type 2 (Dengue virus, Vero C1008, Baseline response 0 %, Hill slope -0.794, Maximum measured 120.176 %, Maximum response 100 %, Minimum measured 78.099 %, R squared 0.152).
As to `O=C(Nc1ccc2c(c1)CNC2)c1cc(F)cc2[nH]c(-c3ccccc3)nc12`, the EC50 in the test with Zika virus [1] (Zika virus, Vero C1008) is 2.13 µM; in the test on dengue virus type 2 (vero c1008), above 6.25 µM. Further, the EC90 in the test with Zika virus [1] (Zika virus, Vero C1008, Baseline response 0 %, Hill slope 1.327, Maximum measured 69.085 %, Maximum response 100 %, Minimum measured 18.26 %, R squared 0.744) was above 3.12 µM; with dengue virus type 2 (Dengue virus, Vero C1008, Maximum measured 101.649 %, Minimum measured 101.649 %) it was above 0.391 µM; in the test on dengue virus type 2 (Dengue virus, Vero C1008, Maximum measured 246.46 %, Minimum measured 208.361 %), above 6.25 µM.
For `O=C(Nc1cc2c(c(C3=CC[C@H](O)CC3)c1)CNC2)c1cc(Cl)cc2[nH]ncc12`, the EC50 in the test on Zika virus [1] (Zika virus, Vero C1008) was 46.6 µM; with dengue virus type 2 (Dengue virus, Vero C1008) it was above 50 µM. In addition, the EC90 in the test on Zika virus [1] (Zika virus, Vero C1008, Baseline response 0 %, Hill slope 3.698, Maximum measured 56.446 %, Maximum response 100 %, Minimum measured 0.896 %, R squared 0.945) was above 50 µM; in the test on dengue virus type 2 (Dengue virus, Vero C1008, Maximum measured 128.94 %, Minimum measured 80.48 %), above 50 µM.
On to `O=C(Nc1ccc2c(c1)CNC2)c1cc(Cl)cc2[nH]c(-c3ccnn3C3CC3)nc12`, for which the EC50 was above 0.781 µM in the test with Zika virus [1] (Zika virus, Vero C1008) and above 6.25 µM with dengue virus type 2 (Dengue virus, Vero C1008). Also, the EC90 is above 0.781 µM in the test with Zika virus [1] (Zika virus, Vero C1008, Baseline response 0 %, Hill slope 2.383, Maximum measured 38.126 %, Maximum response 100 %, Minimum measured 10.566 %, R squared 0.88) and above 6.25 µM in the test on dengue virus type 2 (Dengue virus, Vero C1008, Baseline response 0 %, Hill slope 11.741, Maximum measured 109.967 %, Maximum response 100 %, Minimum measured 87.357 %, R squared 0.219).
Turning to `N#Cc1cccc(-c2nc3c(C(=O)Nc4ccc5c(c4)CNC5)cc(Cl)cc3[nH]2)c1`, the concentration for a half-maximal effect (EC50) in the test with Zika virus [1] (Zika virus, Vero C1008) was above 3.12 µM; with dengue virus type 2 (Dengue virus, Vero C1008), above 50 µM. Further, the EC90 with Zika virus [1] (Zika virus, Vero C1008, Baseline response 0 %, Hill slope 0.859, Maximum measured 7.667 %, Maximum response 100 %, Minimum measured 0.919 %, R squared 0.501) was above 3.12 µM; in the test with dengue virus type 2 (Dengue virus, Vero C1008, Maximum measured 129.968 %, Minimum measured 100.984 %) it was above 50 µM.
